{
  "source": "patent US10801077B2",
  "about": "“Influenza A virus variants” (Vertex Pharmaceuticals Incorporated, priority 2014, dated 2020)",
  "key": {"[1]": {"system": "A/Puerto Rico/8/34, A/California/07/2009, A/Wisconsin/67/2005 influenza virus variants", "assay_type": "cell-based"}, "[2]": {"system": "PR8-Wild Type", "experiment": "microbe, parasite or virus in culture", "assay_type": "cell-based, influenza A virus"}, "[3]": {"system": "PR8-PB2-F323L", "assay_type": "cell-based, influenza A virus"}, "[4]": {"system": "PR8-PB2-S324N", "assay_type": "cell-based, influenza A virus"}, "[5]": {"system": "PR8-PB2-S324R", "assay_type": "cell-based, influenza A virus"}, "[6]": {"system": "PR8-PB2-F325V", "assay_type": "cell-based, influenza A virus"}, "[7]": {"system": "PR8-PB2-H357Q", "assay_type": "cell-based, influenza A virus"}, "[8]": {"system": "PR8-PB2-K376Q", "assay_type": "cell-based, influenza A virus"}, "[9]": {"system": "PR8-PB2-K376R", "assay_type": "cell-based, influenza A virus"}, "[10]": {"system": "PR8-PB2-M431I", "assay_type": "cell-based, influenza A virus"}},
  "data": [
    {"smiles": "CC(C)(C)[C@@H](CC(=O)O)Nc1nc(-c2c[nH]c3ncc(F)cc23)ncc1F", "note": "[Compound 1]", "values": [
      {"measurement": "reduction in sensitivity to Compound 1", "setting": "[1]", "result": "> 10", "unit": "fold"},
      {"measurement": "shift in Compound 1 EC50", "setting": "[1]", "result": "10- to 1720 fold"},
      {"measurement": "shifts in sensitivity to Compound 1", "setting": "[1]", "result": "greater than 10 fold"},
      {"measurement": "Sensitivity to Compound 1 Fold EC50 Shift", "setting": "[2]", "result": 1.0, "unit": "fold"},
      {"measurement": "EC50", "setting": "[2]; Influenza A virus, PR8, MDCK, read-out: Sensitivity to Compound 1 EC50 (SD)", "result": 1.3, "unit": "nM"},
      {"measurement": "Sensitivity to Compound 1 Fold EC50 Shift", "setting": "[3]", "result": 8.5, "unit": "fold"},
      {"measurement": "Sensitivity to Compound 1 Fold EC50 Shift", "setting": "[4]", "result": 31, "unit": "fold"},
      {"measurement": "Sensitivity to Compound 1 Fold EC50 Shift", "setting": "[5]", "result": 33, "unit": "fold"},
      {"measurement": "Sensitivity to Compound 1 Fold EC50 Shift", "setting": "[6]", "result": 3.5, "unit": "fold"},
      {"measurement": "Sensitivity to Compound 1 Fold EC50 Shift", "setting": "[7]", "result": 15, "unit": "fold"},
      {"measurement": "Sensitivity to Compound 1 Fold EC50 Shift", "setting": "[8]", "result": 408, "unit": "fold"},
      {"measurement": "Sensitivity to Compound 1 Fold EC50 Shift", "setting": "[9]", "result": 231, "unit": "fold"},
      {"measurement": "Sensitivity to Compound 1 Fold EC50 Shift", "setting": "[10]", "result": 131, "unit": "fold"}
    ]}
  ]
}
